Results as given in patent US12287332B2, “Test cartridges” (First Light Diagnostics, Inc., priority 2018, dated 2025).
≈ marks a conversion by molar mass, not a printed value.

Key:
Assay type in all cases: cell-based
[1] = test system: K. pneumoniae strain in clinical urine sample BIUR0084; experiment: Automated MultiPath AST cartridge on clinical urine, Example 8; details: 4 h growth, fold growth value of 2, matched CLSI broth microdilution
E. coli ATCC 25922 = experiment: Novel 4.5-hour AST in presence of beta-lactamase producing K. pneumoniae, Example 11; details: Escherichia coli, ATCC25922, 4.5 h; sensitive E. coli strain; increasing amounts of beta-lactamase producing K. pneumoniae; read-out: MIC, novel 4.5-hour AST method
Method: Experimental procedure. Preparation of Antibiotic Plates: Antibiotic plates prepared as described in Impact of Non-Sterile Sample on Target MIC example.
E. coli was diluted to 5×10^5 CFU/mL (CLSI standard concentration) while K. pneumoniae was diluted to various inoculum (ranging from 1×10^6 and 5×10^8 CFU/mL).
30 μL of each processed urine was added to 70 μL of 1× cation-adjusted Mueller-Hinton Broth (MHBII) containing species-specific Alexa647N-labeled DNA oligonucleotide FISH probes and unlabeled DNA helper probes. […] 10 μL of the prepared magnetic particle mixture was then added to the well.
Four-Hour Growth: The E. coli was tested in the presence of varying inoculum of K. pneumoniae-OXA for susceptibility against 2 antimicrobial agents: Imipenem and Meropenem.
100 μL of each well of the incubated sample-antibiotic plate was transferred to a corresponding well of a dehydrated buffer plate and combined with FISH probes, helper probes, magnetic particles, and focus particles in the same manner as described above for assay time zero.
All data was then compared to CLSI standard BMD.

K. pneumoniae CDC0126 = experiment: Novel rapid AST (4 h differential growth, FISH cell counting) in urine matrix, Example 7; details: Klebsiella pneumoniae, 4 h growth, fold-growth threshold 20, read-out: MIC generated by novel rapid AST method
Method: Bacterial cell preparation: 50 bacterial strains with known resistance profiles were collected from either the ATCC or from the CDC antibiotic resistance bank (AR bank) and are shown in Table A. Bacterial cultures for each of these were obtained by inoculating Trypticase Soy Broth (TSB, Hardy Diagnostics cat. U65) with 3 to 5 colonies from fresh tryptic soy agar plates (TSA, BD cat. 221185) and growing for 1.5 to 3 hours at 35° C. to achieve log-phase growth. Using optical density at 600 nm to estimate cell concentration, each culture was diluted to approximately 5×10^6 colony-forming units (CFU)/mL in cation-adjusted Mueller Hinton II (MHBII, Teknova cat. M5860).
A reaction mixture was prepared consisting of 30 μL processed urine, 10 μL of the 5×10^6 CFU/mL bacterial dilution, 60 μL MHBII (1× final concentration in 100 μL) and the appropriate species-specific Alexa647N-labeled DNA oligonucleotide FISH probe and its associated unlabeled DNA helper probes for the target bacterial species. […] 10 μL of the prepared magnetic particle mixture was then added to the well. […]
Four Hour Growth: While the time zero cell quantification was occurring, 12 μL of prepared bacterial culture, 36 uL pooled human urine processed as done for the assay time zero, 60 uL of 2×MHB II (Teknova, cat. #M5860) and 2 uL water was added to each well of the prepared antibiotic plate. […]

Compound	sensitive/resistant call by MultiPath [1]	also measured
Cc1nnc(SCC2=C(C(=O)O)N3C(=O)[C@@H](NC(=O)Cn4cnnn4)[C@H]3SC2)s1 [Cefazolin]	resistant	
C[C@@H](O)[C@H]1C(=O)N2C(C(=O)O)=C(SCCN=CN)C[C@H]12 [Imipenem]		MIC (E. coli ATCC 25922): < 1 µg/mL
O=C(O)c1cn(C2CC2)c2cc(N3CCNCC3)c(F)cc2c1=O [Ciprofloxacin]		MIC (K. pneumoniae CDC0126): 0.25 µg/mL (≈ 0.754 µM)
Trimethoprim/Sulfamethoxazole	resistant	
